# Measurements reported in US12497365B2, “4-pyridinyl formamide compound or derivative thereof, preparation method therefor, herbicidal composition and use thereof” (Qingdao Kingagroot Chemical Compound Co., Ltd., priority 2019, dated 2025).
# Test system: Amaranthus retroflexus L.
# Experiment: Weeding effect in post-emergence stage
# Assay type: in vivo
# Conditions: active ingredient 2000 g/ha, 3 weeks after application, fresh weight control rate
# In short: (§1)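 Post-emergence spray, 2-3 leaf stage; acetone/Tween 80 formulation + methyl oleate EC synergist (1.5 liter/ha); 125-2000 g/ha via spray tower. Greenhouse, 3 wk. Read-out: fresh weight growth control rate, graded by activity level.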
row,Compound,"Weeding effect, activity level (growth control rate), Amaranthus retroflexus L."
1,Cn1nnnc1NC(=O)c1ccnc(-c2cccnc2F)c1Cl [Compound 1-127],5 (Level 5: growth control rate is above 85%)
2,CSc1ccccc1-c1nccc(C(=O)Nc2nnnn2C)c1Cl [Compound 1-42],5 (Level 5: growth control rate is above 85%)
3,Cc1cc(-c2nccc(C(=O)Nc3nnnn3C)c2Cl)n(C)n1 [Compound 1-179],5 (Level 5: growth control rate is above 85%)
4,Cn1nnnc1NC(=O)c1ccnc(-c2ccc(C(=O)O)cc2)c1Cl [Compound 1-39],5 (Level 5: growth control rate is above 85%)
5,Cn1nnnc1NC(=O)c1ccnc(-c2cnn(C(F)F)c2)c1Cl [Compound 1-174],5 (Level 5: growth control rate is above 85%)
6,Cn1nnnc1NC(=O)c1ccnc(-c2ccc(Cl)cc2C(F)(F)F)c1Cl [Compound 1-101],5 (Level 5: growth control rate is above 85%)
7,CCc1c(C(=O)Nc2nnnn2C)ccnc1-c1ccc(F)cc1 [Compound 1-210],5 (Level 5: growth control rate is above 85%)
8,Cn1nnnc1NC(=O)c1ccnc(-c2cc3ccccc3c3ccccc23)c1Cl [Compound 1-115],5 (Level 5: growth control rate is above 85%)
9,Cc1nccc(C(=O)Nc2nnnn2C)c1Cl [Compound 1-1],5 (Level 5: growth control rate is above 85%)

# Test system: Descurainia sophia
# Experiment: Weeding effect in post-emergence stage
# Assay type: in vivo
# Conditions: active ingredient 2000 g/ha, 3 weeks after application, fresh weight control rate
# In short: as §1
row,Compound,"Weeding effect, activity level (growth control rate), Descurainia sophia"
1,Cn1nnnc1NC(=O)c1ccnc(-c2cccnc2F)c1Cl [Compound 1-127],5 (Level 5: growth control rate is above 85%)
2,CSc1ccccc1-c1nccc(C(=O)Nc2nnnn2C)c1Cl [Compound 1-42],5 (Level 5: growth control rate is above 85%)
3,Cc1cc(-c2nccc(C(=O)Nc3nnnn3C)c2Cl)n(C)n1 [Compound 1-179],5 (Level 5: growth control rate is above 85%)
4,Cn1nnnc1NC(=O)c1ccnc(-c2ccc(C(=O)O)cc2)c1Cl [Compound 1-39],5 (Level 5: growth control rate is above 85%)
5,Cn1nnnc1NC(=O)c1ccnc(-c2cnn(C(F)F)c2)c1Cl [Compound 1-174],5 (Level 5: growth control rate is above 85%)
6,Cn1nnnc1NC(=O)c1ccnc(-c2ccc(Cl)cc2C(F)(F)F)c1Cl [Compound 1-101],5 (Level 5: growth control rate is above 85%)
7,CCc1c(C(=O)Nc2nnnn2C)ccnc1-c1ccc(F)cc1 [Compound 1-210],5 (Level 5: growth control rate is above 85%)
8,Cn1nnnc1NC(=O)c1ccnc(-c2cc3ccccc3c3ccccc23)c1Cl [Compound 1-115],5 (Level 5: growth control rate is above 85%)
9,Cc1nccc(C(=O)Nc2nnnn2C)c1Cl [Compound 1-1],5 (Level 5: growth control rate is above 85%)

# Test system: Abutilon theophrasti
# Experiment: Weeding effect in post-emergence stage
# Assay type: in vivo
# Conditions: active ingredient 2000 g/ha, 3 weeks after application, fresh weight control rate
# In short: as §1
row,Compound,"Weeding effect, activity level (growth control rate), Abutilon theophrasti"
1,Cn1nnnc1NC(=O)c1ccnc(-c2cccnc2F)c1Cl [Compound 1-127],5 (Level 5: growth control rate is above 85%)
2,CSc1ccccc1-c1nccc(C(=O)Nc2nnnn2C)c1Cl [Compound 1-42],5 (Level 5: growth control rate is above 85%)
3,Cc1cc(-c2nccc(C(=O)Nc3nnnn3C)c2Cl)n(C)n1 [Compound 1-179],5 (Level 5: growth control rate is above 85%)
4,Cn1nnnc1NC(=O)c1ccnc(-c2ccc(C(=O)O)cc2)c1Cl [Compound 1-39],5 (Level 5: growth control rate is above 85%)
5,Cn1nnnc1NC(=O)c1ccnc(-c2cnn(C(F)F)c2)c1Cl [Compound 1-174],5 (Level 5: growth control rate is above 85%)
6,Cn1nnnc1NC(=O)c1ccnc(-c2ccc(Cl)cc2C(F)(F)F)c1Cl [Compound 1-101],5 (Level 5: growth control rate is above 85%)
7,CCc1c(C(=O)Nc2nnnn2C)ccnc1-c1ccc(F)cc1 [Compound 1-210],5 (Level 5: growth control rate is above 85%)
8,Cn1nnnc1NC(=O)c1ccnc(-c2cc3ccccc3c3ccccc23)c1Cl [Compound 1-115],5 (Level 5: growth control rate is above 85%)
9,Cc1nccc(C(=O)Nc2nnnn2C)c1Cl [Compound 1-1],5 (Level 5: growth control rate is above 85%)

# Test system: Chenopodium album
# Experiment: Weeding effect in post-emergence stage
# Assay type: in vivo
# Conditions: active ingredient 2000 g/ha, 3 weeks after application, fresh weight control rate
# In short: as §1
row,Compound,"Weeding effect, activity level (growth control rate), Chenopodium album"
1,Cn1nnnc1NC(=O)c1ccnc(-c2cccnc2F)c1Cl [Compound 1-127],5 (Level 5: growth control rate is above 85%)
2,CSc1ccccc1-c1nccc(C(=O)Nc2nnnn2C)c1Cl [Compound 1-42],5 (Level 5: growth control rate is above 85%)
3,Cc1cc(-c2nccc(C(=O)Nc3nnnn3C)c2Cl)n(C)n1 [Compound 1-179],5 (Level 5: growth control rate is above 85%)
4,Cn1nnnc1NC(=O)c1ccnc(-c2ccc(C(=O)O)cc2)c1Cl [Compound 1-39],5 (Level 5: growth control rate is above 85%)
5,Cn1nnnc1NC(=O)c1ccnc(-c2cnn(C(F)F)c2)c1Cl [Compound 1-174],5 (Level 5: growth control rate is above 85%)
6,Cn1nnnc1NC(=O)c1ccnc(-c2ccc(Cl)cc2C(F)(F)F)c1Cl [Compound 1-101],5 (Level 5: growth control rate is above 85%)
7,CCc1c(C(=O)Nc2nnnn2C)ccnc1-c1ccc(F)cc1 [Compound 1-210],5 (Level 5: growth control rate is above 85%)
8,Cn1nnnc1NC(=O)c1ccnc(-c2cc3ccccc3c3ccccc23)c1Cl [Compound 1-115],5 (Level 5: growth control rate is above 85%)
9,Cc1nccc(C(=O)Nc2nnnn2C)c1Cl [Compound 1-1],5 (Level 5: growth control rate is above 85%)
